Test results as given in PubChem BioAssay (NCI).
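Method: 48-hour compound exposure of cells in 96-well plates, five concentrations, linear interpolation of endpoints. Abbreviation: GI50, concentration required for 50% inhibition of growth. Definition used: TGI = concentration required for complete inhibition of growth.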

Legend:
Assay in all cases: NCI anticancer screen, dose series, 48 h
OVCAR-3 ovarian = system: OVCAR-3 ovarian
CAKI-1 renal = system: CAKI-1 renal
786-0 renal = system: 786-0 renal
HOP-62 NSCLC = system: HOP-62 NSCLC
A549 NSCLC = system: A549 NSCLC
SK-MEL-28 melanoma = system: SK-MEL-28 melanoma
HCT-15 colon = system: HCT-15 colon
COLO 205 colon = system: COLO 205 colon
OVCAR-5 ovarian = system: OVCAR-5 ovarian
SF-268 CNS = system: SF-268 CNS
NCI-H226 lung = system: NCI-H226 lung
MDA-MB-231 breast = system: MDA-MB-231 breast
RPMI-8226 leukemia = system: RPMI-8226 leukemia
UO-31 renal = system: UO-31 renal
SF-539 CNS = system: SF-539 CNS
HCC-2998 colon = system: HCC-2998 colon
MCF7 breast = system: MCF7 breast
SNB-19 CNS = system: SNB-19 CNS
U251 CNS = system: U251 CNS
SNB-75 CNS = system: SNB-75 CNS
A498 renal = system: A498 renal
UACC-257 melanoma = system: UACC-257 melanoma
LOX IMVI melanoma = system: LOX IMVI melanoma
SK-OV-3 ovarian = system: SK-OV-3 ovarian
K-562 leukemia = system: K-562 leukemia
NCI-H23 lung = system: NCI-H23 lung
SK-MEL-2 melanoma = system: SK-MEL-2 melanoma
UACC-62 melanoma = system: UACC-62 melanoma
NCI-H522 lung = system: NCI-H522 lung
PC-3 prostate = system: PC-3 prostate
IGROV1 ovarian = system: IGROV1 ovarian
HS 578T breast = system: HS 578T breast
KM12 colon = system: KM12 colon
EKVX NSCLC = system: EKVX NSCLC
MDA-MB-435 = system: MDA-MB-435
RXF 393 renal = system: RXF 393 renal
BT-549 breast = system: BT-549 breast
ACHN renal = system: ACHN renal
MOLT-4 leukemia = system: MOLT-4 leukemia
OVCAR-4 ovarian = system: OVCAR-4 ovarian
OVCAR-8 ovarian = system: OVCAR-8 ovarian
SW-620 colon = system: SW-620 colon
SK-MEL-5 melanoma = system: SK-MEL-5 melanoma
NCI/ADR-RES ovarian = system: NCI/ADR-RES ovarian
NCI-H460 lung = system: NCI-H460 lung
CCRF-CEM leukemia = system: CCRF-CEM leukemia
M14 melanoma = system: M14 melanoma
DU-145 prostate = system: DU-145 prostate
SR leukemia = system: SR leukemia
T-47D breast = system: T-47D breast
HT29 colon = system: HT29 colon
HOP-92 NSCLC = system: HOP-92 NSCLC
HL-60(TB) leukemia = system: HL-60(TB) leukemia
SN12C renal = system: SN12C renal
HCT-116 colon = system: HCT-116 colon
TK-10 renal = system: TK-10 renal
SF-295 CNS = system: SF-295 CNS
MALME-3M melanoma = system: MALME-3M melanoma

CN(C)c1nc(N)nc(CCl)n1
TGI (OVCAR-3 ovarian): 49 µM
TGI (CAKI-1 renal): 18 µM
TGI (786-0 renal): 58.3 µM
TGI (HOP-62 NSCLC): 46.8 µM
TGI (A549 NSCLC): > 100 µM
TGI (SK-MEL-28 melanoma): > 100 µM
TGI (HCT-15 colon): 93 µM
TGI (COLO 205 colon): 61.8 µM
TGI (OVCAR-5 ovarian): > 100 µM
TGI (SF-268 CNS): > 100 µM
TGI (NCI-H226 lung): > 100 µM
TGI (MDA-MB-231 breast): 72.4 µM
TGI (RPMI-8226 leukemia): > 100 µM
TGI (UO-31 renal): 26.1 µM
TGI (SF-539 CNS): 60.2 µM
TGI (HCC-2998 colon): > 100 µM
TGI (MCF7 breast): > 100 µM
TGI (SNB-19 CNS): > 100 µM
TGI (U251 CNS): > 100 µM
TGI (SNB-75 CNS): 11.3 µM
TGI (A498 renal): 70.8 µM
TGI (UACC-257 melanoma): > 100 µM
TGI (LOX IMVI melanoma): 21.9 µM
TGI (SK-OV-3 ovarian): > 100 µM
TGI (K-562 leukemia): 84.4 µM
TGI (NCI-H23 lung): 68.9 µM
TGI (SK-MEL-2 melanoma): > 100 µM
TGI (UACC-62 melanoma): 41.5 µM
TGI (NCI-H522 lung): 25 µM
TGI (PC-3 prostate): > 100 µM
TGI (IGROV1 ovarian): 35 µM
TGI (HS 578T breast): > 100 µM
TGI (KM12 colon): > 100 µM
TGI (EKVX NSCLC): 41.6 µM
TGI (MDA-MB-435): > 100 µM
TGI (RXF 393 renal): > 100 µM
TGI (BT-549 breast): > 100 µM
TGI (ACHN renal): 39.7 µM
TGI (MOLT-4 leukemia): > 100 µM
TGI (OVCAR-4 ovarian): 38.2 µM
TGI (OVCAR-8 ovarian): > 100 µM
TGI (SW-620 colon): 87.7 µM
TGI (SK-MEL-5 melanoma): 90.6 µM
TGI (NCI/ADR-RES ovarian): 86.8 µM
TGI (NCI-H460 lung): > 100 µM
TGI (CCRF-CEM leukemia): 58.6 µM
TGI (M14 melanoma): > 100 µM
TGI (DU-145 prostate): > 100 µM
TGI (SR leukemia): 65.8 µM
TGI (T-47D breast): > 100 µM
TGI (HT29 colon): > 100 µM
TGI (HOP-92 NSCLC): 45.6 µM
TGI (HL-60(TB) leukemia): 78.2 µM
TGI (SN12C renal): > 100 µM
TGI (HCT-116 colon): > 100 µM
TGI (TK-10 renal): > 100 µM
TGI (SF-295 CNS): > 100 µM

COc1ccc(C2C(C#N)=C(N)Oc3c2sc2c(F)cccc32)cc1 (stereo unspecified)
GI50 (OVCAR-3 ovarian): 1.38 µM
TGI (OVCAR-3 ovarian): 4.94 µM
GI50 (786-0 renal): 3.34 µM
TGI (786-0 renal): 13 µM
GI50 (HOP-62 NSCLC): 1.75 µM
TGI (HOP-62 NSCLC): 15.9 µM
GI50 (A549 NSCLC): 3.12 µM
TGI (A549 NSCLC): 22.3 µM
GI50 (SK-MEL-28 melanoma): 8.25 µM
TGI (SK-MEL-28 melanoma): 23.2 µM
GI50 (HCT-15 colon): 1.73 µM
TGI (HCT-15 colon): 12.4 µM
GI50 (COLO 205 colon): 2.62 µM
TGI (COLO 205 colon): 8.18 µM
GI50 (OVCAR-5 ovarian): 8.53 µM
TGI (OVCAR-5 ovarian): 27.6 µM
GI50 (SF-268 CNS): 3.95 µM
TGI (SF-268 CNS): 19.6 µM
GI50 (NCI-H226 lung): 14 µM
TGI (NCI-H226 lung): 32.6 µM
GI50 (MDA-MB-231 breast): 3.77 µM
TGI (MDA-MB-231 breast): 20.3 µM
GI50 (RPMI-8226 leukemia): 2.66 µM
TGI (RPMI-8226 leukemia): 12.5 µM
GI50 (UO-31 renal): 4.66 µM
TGI (UO-31 renal): 17.7 µM
GI50 (SF-539 CNS): 2.13 µM
TGI (SF-539 CNS): 6.24 µM
GI50 (MALME-3M melanoma): 11.6 µM
TGI (MALME-3M melanoma): 26.3 µM
GI50 (HCC-2998 colon): 3.04 µM
TGI (HCC-2998 colon): 14 µM
GI50 (MCF7 breast): 0.711 µM
TGI (MCF7 breast): 13.6 µM
GI50 (SNB-19 CNS): 2.99 µM
TGI (SNB-19 CNS): 16.8 µM
GI50 (U251 CNS): 2.74 µM
TGI (U251 CNS): 11.8 µM
GI50 (SNB-75 CNS): 2.42 µM
TGI (SNB-75 CNS): 14.5 µM
GI50 (A498 renal): 2.1 µM
TGI (A498 renal): 15.6 µM
GI50 (UACC-257 melanoma): 14.6 µM
TGI (UACC-257 melanoma): 88.8 µM
GI50 (LOX IMVI melanoma): 2.4 µM
TGI (LOX IMVI melanoma): 12.4 µM
GI50 (SK-OV-3 ovarian): 4.35 µM
TGI (SK-OV-3 ovarian): 36.7 µM
GI50 (K-562 leukemia): 0.493 µM
TGI (K-562 leukemia): 18.2 µM
GI50 (NCI-H23 lung): 3.6 µM
TGI (NCI-H23 lung): 21.8 µM
GI50 (SK-MEL-2 melanoma): 3 µM
TGI (SK-MEL-2 melanoma): 18.6 µM
GI50 (UACC-62 melanoma): 2.41 µM
TGI (UACC-62 melanoma): 18.9 µM
GI50 (NCI-H522 lung): 0.799 µM
TGI (NCI-H522 lung): 6.35 µM
GI50 (PC-3 prostate): 2.36 µM
TGI (PC-3 prostate): 11.7 µM
GI50 (IGROV1 ovarian): 2.9 µM
TGI (IGROV1 ovarian): 19.5 µM
GI50 (HS 578T breast): 2.81 µM
TGI (HS 578T breast): 27 µM
GI50 (KM12 colon): 1.62 µM
TGI (KM12 colon): 17.5 µM
GI50 (EKVX NSCLC): 4.7 µM
TGI (EKVX NSCLC): 22.5 µM
GI50 (MDA-MB-435): 0.315 µM
TGI (MDA-MB-435): 1.4 µM
GI50 (RXF 393 renal): 1.81 µM
TGI (RXF 393 renal): 5.77 µM
GI50 (BT-549 breast): 4.65 µM
TGI (BT-549 breast): 24 µM
GI50 (ACHN renal): 6.08 µM
TGI (ACHN renal): 21.4 µM
GI50 (MOLT-4 leukemia): 2.62 µM
TGI (MOLT-4 leukemia): 14 µM
GI50 (OVCAR-4 ovarian): 8.95 µM
TGI (OVCAR-4 ovarian): 31 µM
GI50 (OVCAR-8 ovarian): 3.11 µM
TGI (OVCAR-8 ovarian): 14.5 µM
GI50 (SW-620 colon): 1.82 µM
TGI (SW-620 colon): 15.6 µM
GI50 (SK-MEL-5 melanoma): 3.93 µM
TGI (SK-MEL-5 melanoma): 16.3 µM
GI50 (NCI/ADR-RES ovarian): 0.881 µM
TGI (NCI/ADR-RES ovarian): 5.96 µM
GI50 (NCI-H460 lung): 2.59 µM
TGI (NCI-H460 lung): 11.9 µM
GI50 (CCRF-CEM leukemia): 1.7 µM
TGI (CCRF-CEM leukemia): 12.5 µM
GI50 (M14 melanoma): 1.34 µM
TGI (M14 melanoma): 4.54 µM
GI50 (DU-145 prostate): 2.96 µM
TGI (DU-145 prostate): 11.4 µM
GI50 (SR leukemia): 0.706 µM
TGI (SR leukemia): 14.2 µM
GI50 (T-47D breast): 2.57 µM
TGI (T-47D breast): 25.9 µM
GI50 (HT29 colon): 3.23 µM
TGI (HT29 colon): 11.1 µM
GI50 (HOP-92 NSCLC): 4.32 µM
TGI (HOP-92 NSCLC): 21.2 µM
GI50 (HL-60(TB) leukemia): 1.75 µM
TGI (HL-60(TB) leukemia): 6.5 µM
GI50 (SN12C renal): 3.94 µM
TGI (SN12C renal): 16.5 µM
GI50 (HCT-116 colon): 2.7 µM
TGI (HCT-116 colon): 12.1 µM
GI50 (TK-10 renal): 5.69 µM
TGI (TK-10 renal): 23.5 µM
GI50 (SF-295 CNS): 2.1 µM
TGI (SF-295 CNS): 11.5 µM
